Experimental data taken from patent US7229769B2, “Compositions and methods for detecting protease activity” (Illumina, Inc., priority 2005, dated 2007).
Residues, ends and D or L forms follow the SMILES beside them. *: point of attachment. Cbz = O=C(OCc1ccccc1)*; CH2F = FC*

Target: T1, Caspase-3 (Homo sapiens, UniProt P42574)
T1 sequence (P42574 29-175 limits assumed): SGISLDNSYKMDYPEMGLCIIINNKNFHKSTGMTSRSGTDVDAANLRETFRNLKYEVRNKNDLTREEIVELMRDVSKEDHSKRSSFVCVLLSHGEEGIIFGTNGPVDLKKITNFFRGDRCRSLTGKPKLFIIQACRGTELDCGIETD
T1 sequence (P42574 176-277 limits assumed): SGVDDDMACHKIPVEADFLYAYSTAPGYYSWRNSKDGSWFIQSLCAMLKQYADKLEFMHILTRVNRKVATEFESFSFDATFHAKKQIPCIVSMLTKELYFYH
Test: Caspase-3 protease assay with protein-DNA conjugate substrate, streptavidin extraction, BeadArray detection; inhibition analysis
Format: biochemical
Settings: end point assays, various concentrations of inhibitor vs. absence of inhibitor, FIG. 10
Experimental: Caspase-3 protease activity was carried out as follows. Briefly, the caspase-3 substrate included a protein moiety (peptide) having a caspase-3 amino acid recognition sequence. The protein moiety was attached at its amino terminus to a FAM-labeled DNA moiety and at its carboxy terminus to a biotin. The enzymatic reactions were performed in 30 to 60 microliter volumes having substrate concentrations in the range of 20 nM to 150 nM. The enzyme concentrations ranged from a few ng/ml to a few mg/ml. The assay buffer was 50 mM Tris-HCL, pH 8.0, 1 mM CaCl2, and 0.1% Tween-20 (v/v). The assay was carried out at 37° C. at varying times from 5 minutes to twelve hours.
Following incubation of the protease and substrate, the reaction mixture was extracted with streptavidin beads provided in molar excess for 15 minutes to remove uncleaved substrate (and cleaved protein fragments lacking the DNA moiety). Following removal of the streptavidin beads, the remaining mixture, containing FAM-labeled DNA fragments of the cleaved caspase-3 substrate, was diluted into GoldenGate™ hybridization buffer (Illumina, Inc., San Diego, Calif.) and hybridized onto a Sentrix® BeadArray Matrix for one hour at room temperature. The BeadArray matrix included nucleic acid probes that were complementary to the FAM-labeled DNA fragments. […]

## COC(=O)C[C@H](NC(=O)[C@H](C)NC(=O)[C@@H](NC(=O)OCc1ccccc1)C(C)C)C(=O)CF [ZVAD-FMK] (Cbz-Val-Ala-Asp(OMe)-CH2F)
  extent of inhibition of caspase-3 (mean signal intensity vs. time): as the concentration of inhibitor was increased the extent of inhibition was also increased
